24 compounds from patent US11174232B2, “Substituted heterocyclyl derivatives as CDK inhibitors” (Aurigene Discovery Technologies Limited, priority 2015, dated 2021) can be followed below.

The target in this assay is CDK7/CycH/MNAT1 (Homo sapiens (Human), UniProt P50613). Description: Biochemical Assay for CDK7 (TR-FRET kinase assay). The settings on record: 60 min pre-incubation with kinase, 1 mM ATP; for inhibition at 10 µM / % inhibition @ 10 μM: 10 μM compound. As for the experimental part:
Biochemical Assay for CDK7:
The ability of compounds to inhibit CDK7 kinase activity was tested in a TR-FRET assay using 5 nM of CDK7/CycH/MNAT1 obtained from Invitrogen, USA. Test compounds were pre-incubated with the kinase at room temperature for 60 min. After the incubation, substrate mix [100 nM Ultra-light MBP (Perkin Elmer, USA) and 1 mM ATP (Sigma)] was added. The above reaction was stopped by the addition of 40 mM EDTA after 60 minutes of kinase reaction. 1 nM Eu-labelled antiphospho-MBP antibody [Perkin Elmer, USA] was added, mixed well and the fluorescence emission at 615 nm and 665 nm [excitation at 340 nm] was measured. The final DMSO concentration in the assay was 1%. For IC50 determination, appropriate concentrations were made by ⅓^rd serial dilutions of 10 mM DMSO stock solution of test compound. All the fluorescence measurements were made in a Victor 3 Multilabel Counter [Perkin Elmer, USA]. The IC50 was determined by fitting the dose response data to sigmoidal curve fitting equation using GraphPad Prism software V5. To identify compounds that inhibit CDK7 irreversibly, time depended inhibition studies were carried by pre-incubating compound with the enzyme at three time points (20, 60 and 180 min) and carrying out assay as described above.
The compounds were screened by the above mentioned assay procedure.
For orientation: TR-FRET usually uses a lanthanide donor and a delayed reading to cut background.

Sequence of CDK7/CycH/MNAT1 (P50613 whole entry): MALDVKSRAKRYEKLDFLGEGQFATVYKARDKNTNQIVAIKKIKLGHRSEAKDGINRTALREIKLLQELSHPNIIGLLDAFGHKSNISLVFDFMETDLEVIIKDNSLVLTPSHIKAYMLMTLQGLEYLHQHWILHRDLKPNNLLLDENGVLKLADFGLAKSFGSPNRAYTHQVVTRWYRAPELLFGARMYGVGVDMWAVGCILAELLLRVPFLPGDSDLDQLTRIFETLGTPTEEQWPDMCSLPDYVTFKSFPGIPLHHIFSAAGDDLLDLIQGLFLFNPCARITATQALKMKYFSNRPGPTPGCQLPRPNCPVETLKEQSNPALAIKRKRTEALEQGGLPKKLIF
Sequence of CDK7/CycH/MNAT1 (P51946 whole entry partner): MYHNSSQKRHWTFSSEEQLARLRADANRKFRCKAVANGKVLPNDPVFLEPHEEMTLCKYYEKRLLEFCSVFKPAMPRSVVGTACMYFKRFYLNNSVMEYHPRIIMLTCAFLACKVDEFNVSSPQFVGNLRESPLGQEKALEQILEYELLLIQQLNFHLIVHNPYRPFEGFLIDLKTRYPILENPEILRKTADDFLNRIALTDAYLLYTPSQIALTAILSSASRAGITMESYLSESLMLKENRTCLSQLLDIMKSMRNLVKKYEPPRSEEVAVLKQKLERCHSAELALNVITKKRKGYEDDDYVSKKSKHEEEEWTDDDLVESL
Sequence of CDK7/CycH/MNAT1 (P51948 whole entry partner): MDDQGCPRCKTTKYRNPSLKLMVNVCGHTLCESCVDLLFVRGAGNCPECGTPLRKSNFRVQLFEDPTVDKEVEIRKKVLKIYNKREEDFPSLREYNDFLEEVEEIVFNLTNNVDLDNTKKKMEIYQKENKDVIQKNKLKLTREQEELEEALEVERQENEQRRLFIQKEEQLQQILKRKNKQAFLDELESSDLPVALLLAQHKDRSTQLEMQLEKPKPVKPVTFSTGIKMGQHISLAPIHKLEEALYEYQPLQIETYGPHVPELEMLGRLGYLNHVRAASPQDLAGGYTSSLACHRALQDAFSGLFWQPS

As usually defined, the inhibition is the change of the read-out against control, counted positive when it falls. In general, IC50 refers to the concentration at which inhibition is half-maximal. A lower IC50 goes with greater potency in that assay. Regarding `CC(C(=O)Nc1cc(C2CC2)[nH]n1)c1cccc(-c2ccc(NC(=O)/C=C/CN3CCOCC3)cn2)c1` (stereo not drawn) [Compound 35, (E)-N-(6-(3-(1-((5-cyclopropyl-1H-pyrazol-3-yl)amino)-1-oxopropan-2-yl)phenyl)pyridin-3-yl)-4-morpholinobut-2-enamide], the inhibition at 10 µM was 86% and the IC50 was above 100 nM.

In the case of `C[C@H](C(=O)Nc1cc(C2CC2)[nH]n1)c1cccc(-c2ccc(NC(=O)/C=C/CN3CCOCC3)nc2)c1` [Compound 93, (S,E)-N-(5-(3-(1-((5-cyclopropyl-1H-pyrazol-3-yl)amino)-1-oxopropan-2-yl)phenyl)pyridin-2-yl)-4-morpholinobut-2-enamide], the inhibition at 10 µM is 100% and the IC50 was below 25 nM.

Regarding `C=CC(=O)Nc1cncc(-c2cccc(C(C)C(=O)Nc3cc(C4CC4)[nH]n3)c2)n1` (stereo not drawn) [Compound 79, N-(6-(3-(1-((5-cyclopropyl-1H-pyrazol-3-yl)amino)-1-oxopropan-2-yl)phenyl)pyrazin-2-yl)acrylamide], the inhibition at 10 µM turned out to be 102% and the IC50 was below 25 nM.

As to `C=CC(=O)Nc1ccc(-c2cccc(C(C)C(=O)Nc3cc(C4CC4)[nH]n3)c2)cn1` (single isomer, unassigned) [Compound 22, N-(5-(3-(1-((5-cyclopropyl-1H-pyrazol-3-yl)amino)-1-oxopropan-2-yl)phenyl)pyridin-2-yl)acrylamide], the “% inhibition @ 10 μM” value stood at 97% and the IC50 is below 25 nM.

For `CC(C(=O)Nc1cc(C2CC2)[nH]n1)c1cccc(-c2ccc(NC/C=C/C(=O)N(C)C)cn2)c1` (stereo not drawn) [Compound 37, (E)-4-((6-(3-(1-((5-cyclopropyl-1H-pyrazol-3-yl)amino)-1-oxopropan-2-yl)phenyl)pyridin-3-yl)amino)-N,N-dimethylbut-2-enamide], the inhibition at 10 µM amounted to 67% and the IC50 was above 100 nM.

With `CC(C(=O)Nc1cc(C2CC2)[nH]n1)c1cccc(-c2cccc(NC(=O)/C=C/CN3CCOCC3)c2)c1` (stereo not drawn) [Compound 61, (E)-N-(3′-(1-((5-cyclopropyl-1H-pyrazol-3-yl)amino)-1-oxopropan-2-yl)-[1,1′-biphenyl]-3-yl)-4-morpholinobut-2-enamide], the inhibition at 10 µM stood at 92% and the IC50 was above 100 nM.

Consider `CC(C(=O)Nc1cc(C2CC2)[nH]n1)c1cccc(-c2ccc(NC(=O)/C=C/CN3CC[C@H](F)C3)nc2)c1` (single isomer, unassigned) [Compound 48], for which the “% inhibition @ 10 μM” value is listed as 90% and the IC50 is 25 to 100 nM.

For `C=CC(=O)NCc1ccc(-c2cccc(C(C)C(=O)Nc3cc(C4CC4)[nH]n3)c2)cn1` (stereo not drawn) [Compound 74, N-((5-(3-(1-((5-cyclopropyl-1H-pyrazol-3-yl)amino)-1-oxopropan-2-yl)phenyl)pyridin-2-yl)methyl)acrylamide], the inhibition at 10 µM stood at 79% and the IC50 was above 100 nM.

Take `COC[C@@H]1C[C@H](F)CN1C/C=C/C(=O)Nc1ccc(-c2cccc(C(C)C(=O)Nc3cc(C4CC4)[nH]n3)c2)cn1` (stereo partly drawn) [Compound 77, (E)-N-(5-(3-(1-((5-cyclopropyl-1H-pyrazol-3-yl)amino)-1-oxopropan-2-yl)phenyl)pyridin-2-yl)-4-((2S,4S)-4-fluoro-2-(methoxymethyl)pyrrolidin-1-yl)but-2-enamide]: the inhibition at 10 µM worked out at 98% and the IC50 fell in the range of 25 to 100 nM.

As to `CCc1cc(NC(=O)C(C)c2cccc(-c3ccc(NC(=O)/C=C/CN(C)C)cc3)c2)n[nH]1` (stereo not drawn) [Compound 8, (E)-4-(dimethylamino)-N-(3′-(1-((5-ethyl-1H-pyrazol-3-yl)amino)-1-oxopropan-2-yl)-[1,1′-biphenyl]-4-yl)but-2-enamide], the inhibition at 10 µM was found to be 92% and the IC50 is above 100 nM.

Consider `CC(C(=O)Nc1cc(C2CC2)[nH]n1)c1cccc(-c2ccc(NC(=O)/C=C/CN(C)C)cn2)c1` (stereo not drawn) [Compound 16, (E)-N-(6-(3-(1-((5-cyclopropyl-1H-pyrazol-3-yl)amino)-1-oxopropan-2-yl)phenyl)pyridin-3-yl)-4-(dimethylamino)but-2-enamide], for which the inhibition at 10 µM turned out to be 95% and the IC50 lay within 25 to 100 nM.

For `CC(C(=O)Nc1cc(C2CCC2)[nH]n1)c1cccc(-c2ccc(NC(=O)/C=C/CN(C)C)cc2)c1` (stereo not drawn) [Compound 15, (E)-N-(3′-(1-((5-cyclobutyl-1H-pyrazol-3-yl)amino)-1-oxopropan-2-yl)-[1,1′-biphenyl]-4-yl)-4-(dimethylamino)but-2-enamide], the inhibition at 10 µM turned out to be 93% and the IC50 was below 25 nM.

Take `C=CC(=O)Nc1ccc(-c2cccc(C(C)C(=O)Nc3n[nH]c4ccccc34)c2)cc1` (stereo not drawn) [Compound 90, N-(3′-(1-((1H-indazol-3-yl)amino)-1-oxopropan-2-yl)-[1,1′-biphenyl]-4-yl)acrylamide]: the inhibition at 10 µM came to 83% and the IC50 is above 100 nM.

Take `CC(C(=O)Nc1cc(C2CC2)[nH]n1)c1cccc(-c2ccc(NC(=O)/C=C/CN(C)C)cc2)c1` (stereo not drawn) [Compound 1, (E)-N-(3′-(1-((5-cyclopropyl-1H-pyrazol-3-yl)amino)-1-oxopropan-2-yl)-[1,1′-biphenyl]-4-yl)-4-(dimethylamino)but-2-enamide]: the inhibition at 10 µM is 92% and the IC50 was 25 to 100 nM.

`CC(C(=O)Nc1cc(C2CC2)[nH]n1)c1cccc(-c2ccc(NC(=O)/C=C/CN3CCOCC3)nc2)c1` (single isomer, unassigned) [Compound 11, (E)-N-(5-(3-(1-((5-cyclopropyl-1H-pyrazol-3-yl)amino)-1-oxopropan-2-yl)phenyl)pyridin-2-yl)-4-morpholinobut-2-enamide]: the “% inhibition @ 10 μM” value was determined as 75% and the IC50 is above 100 nM.

As to `COC[C@@H]1CCCN1C/C=C/C(=O)Nc1ccc(-c2cccc(C(C)C(=O)Nc3cc(C4CC4)[nH]n3)c2)cn1` (single isomer, unassigned) [Compound 71], the inhibition at 10 µM was determined as 81% and the IC50 is above 100 nM.

For `C=CC(=O)Nc1ccc(-c2cccc(C(CC)C(=O)Nc3cc(C4CC4)[nH]n3)c2)nc1` (stereo not drawn) [Compound 26, 2-(3-(5-acrylamidopyridin-2-yl)phenyl)-N-(5-cyclopropyl-1H-pyrazol-3-yl)butanamide], the inhibition at 10 µM is 96% and the IC50 is below 25 nM.

Regarding `CC(C(=O)Nc1cc(C2CC2)[nH]n1)c1cccc(-c2ccc(NC(=O)/C=C/CN3CCCC(F)C3)nc2)c1` (stereo not drawn) [Compound 57, (E)-N-(5-(3-(1-((5-cyclopropyl-1H-pyrazol-3-yl)amino)-1-oxopropan-2-yl)phenyl)pyridin-2-yl)-4-(3-fluoropiperidin-1-yl)but-2-enamide], the inhibition at 10 µM stood at 98% and the IC50 was below 25 nM.

In the case of `CC(C(=O)Nc1cc(C2CC2)[nH]n1)c1cccc(-c2ccc(NC(=O)/C=C/CN3CCC(C#N)C3)nc2)c1` (stereo not drawn) [Compound 78, (E)-4-(3-cyanopyrrolidin-1-yl)-N-(5-(3-(1-((5-cyclopropyl-1H-pyrazol-3-yl)amino)-1-oxopropan-2-yl)phenyl)pyridin-2-yl)but-2-enamide], the inhibition at 10 µM stood at 100% and the concentration for half-maximal inhibition (IC50) lay in the range of 25 to 100 nM.

Take `C=CC(=O)Nc1ccc(-c2cccc(C(C)C(=O)Nc3cc(C4CC4)[nH]n3)c2)cc1OC` (stereo not drawn) [Compound 65, N-(3′-(1-((5-cyclopropyl-1H-pyrazol-3-yl)amino)-1-oxopropan-2-yl)-3-methoxy-[1,1′-biphenyl]-4-yl)acrylamide]: the inhibition at 10 µM came to 94% and the IC50 was above 100 nM.

For `CC(C(=O)Nc1cc(C2CC2)[nH]n1)c1cccc(-c2cnc(NC(=O)/C=C/CN3CCOCC3)c(F)c2)c1` (stereo not drawn) [Compound 63, (E)-N-(5-(3-(1-((5-cyclopropyl-1H-pyrazol-3-yl)amino)-1-oxopropan-2-yl)phenyl)-3-fluoropyridin-2-yl)-4-morpholinobut-2-enamide], the inhibition at 10 µM was determined as 98% and the IC50 lay in the range of 25 to 100 nM.

As for `CC(C(=O)Nc1cc(C2CC2)[nH]n1)c1cccc(-c2ccc(NC(=O)/C=C/Cn3ccnc3)nc2)c1` (stereo not drawn) [Compound 69, (E)-N-(5-(3-(1-((5-cyclopropyl-1H-pyrazol-3-yl)amino)-1-oxopropan-2-yl)phenyl)pyridin-2-yl)-4-(1H-imidazol-1-yl)but-2-enamide], the inhibition at 10 µM was determined as 87% and the IC50 was in the range of 25 to 100 nM.

On to `CC(C)C(C(=O)Nc1cc(C2CC2)[nH]n1)c1cccc(-c2ccc(NC(=O)/C=C/CN(C)C)c(F)c2)c1` (stereo not drawn) [Compound 43, (E)-N-(3′-(1-((5-cyclopropyl-1H-pyrazol-3-yl)amino)-3-methyl-1-oxobutan-2-yl)-3-fluoro-[1,1′-biphenyl]-4-yl)-4-(dimethylamino)but-2-enamide], for which the inhibition at 10 µM came to 99% and the IC50 was below 25 nM.

For `CC(C(=O)Nc1cc(C2CC2)[nH]n1)c1cccc(-c2ccc(NC(=O)/C=C/CN3CCC[C@H]3CC#N)nc2)c1` (stereo partly drawn) [Compound 82, (E)-4-((S)-2-(cyanomethyl)pyrrolidin-1-yl)-N-(5-(3-(1-((5-cyclopropyl-1H-pyrazol-3-yl)amino)-1-oxopropan-2-yl)phenyl)pyridin-2-yl)but-2-enamide], the inhibition at 10 µM worked out at 99% and the IC50 fell in the range of 25 to 100 nM.
